Data published in patent publication US11576987B2, “Compositions and methods of treating melanoma” (UNIVERSITY OF IOWA RESEARCH FOUNDATION, priority 2016, dated 2023).
Structures can show the parent of a compound that is named as a salt.

Key:
MCR1 expression = assay: Flow cytometry analysis of MCR1 expression in malignant melanoma cells; assay type: cell-based, human; settings: BRAF^V600E mutant melanoma cell lines (A2058, A375), 3 mmole 4-PBA, 4 h and 24 h
Method: FIG. 1: Flowcytometry analysis of MCR1 expression in A375 malignant melanoma cells. A375 cells were treated with either 2 μmole Vemurafenib or 3 mmole 4-PBA for 4 h and 24 h (n=3). The treated and untreated (control) cells were stained with anti-MC1R-phycoerythrin (PE) monoclonal antibody conjugate. Fluorescence intensity was corrected by auto-fluorescence of cells without staining and data were expressed as relative (vs control) fluorescence intensity±SD. Statistical significance was determined by Student's T-test (*P<0.05; **P<0.01; ***P<0.001; ****P<0.0001).
(§1) FIG. 2: Flowcytometry analysis of MCR1 expression in A2058 malignant melanoma cells. […] Fluorescence intensity was corrected by auto-fluorescence of cells without staining and data were expressed as relative (vs control) fluorescence intensity±SD. Statistical significance was determined by Student's T-test (*P<0.05; **P<0.01; ***P<0.001; ****P<0.0001).
as §1, with “3:” for “2:”, “SK-Me13” for “A2058”, “****P<0.0001, N. S. non-significant).” for “****P<0.0001).”
FIGS. 11A-11D. […] Fluorescence intensity was corrected by PE-conjugated isotype. […]

MCR1 = target: T1, MCR1 (Homo sapiens, UniProt Q01726); assay: Radiobinding assay with [125I]-NDP-a-MSH after drug incubation; assay type: cell-based; settings: SK-MEL3 and A2058 BRAF^V600E, 4 hours incubation, relative to untreated controls
T1 construct: endogenous in cells; host or cells: SK-MEL3 BRAF V600E and A2058 BRAF V600E human melanoma cells
Method: FIGS. 11A-11D. MCR1 expression can be enhanced in human melanoma cells by incubation with PBA and FDA approved melanoma drugs. (A-B) Flow cytometry analysis of MC1R expression in human melanoma cells: (A) SK-MEL3 BRAF^V600E; (B) A2058 BRAF^V600E; incubated for 4 hours with clinically-relevant concentrations of BRAFi: PLX4032 (10 μM), GSK2118436 (2 μM); MEKi: GDC0973 (2 μM), GSK1120212 (2 μM); 4-PBA (4 mM). Cells were stained with anti-MC1R-phycoerythrin (PE) monoclonal antibody conjugate. Fluorescence intensity was corrected by PE-conjugated isotype. Data were expressed as normalized mean fluorescence intensity (NMFI; n=4±SD; *p<0.05). […] (C) SK-MEL3 BRAF^V600E; and (D) A2058 BRAF^V600E was confirmed by radiobinding assay using MCR1-specific peptide [^125I]-NDP-a-MSH following incubation for 4 hours with PBA and FDA approved drugs (as in FIG. 10). […] Binding expressed as radioactivity bound relative to untreated controls (same cells) (n=4±SD; *p<0.05).
PCR measurements give information on the cellular response to drug treatments, but competitive binding assays convey a specific measure of changes in receptor expression (protein level) and changes in ligand-binding interactions as a result of drug treatments (FIGS. 11A-11B). After drug treatments, receptor expression is determined using synthetic α-MSH analog [^125I]-Nle^4-D-Phe^7-alpha-MSH ([^125I]-NDP-MSH) routinely as in FIG. 16D. […]

[1] = test system: BRAFi-resistant A375VR cells; assay: Clonogenic survival of BRAFi-resistant melanoma cells; assay type: cell-based, human; settings: in combination with 5 μM vemurafenib, up to 6 days, PBA as low as 500 μM
Method: FIGS. 13A-13B. PBA treatment promotes cell death of BRAFi-resistant metastatic melanoma and upregulates MCR1 expression in a time dpe. (A) BRAFi-resistant A375VR cells were incubated with 5 μM vemurafenib in combination with ER-stress-relieving drug 4-PBA for up to 6 days. […] (B) Flow cytometry analysis of MCR1 expression in A2058 and A375 malignant melanoma cells. Cells were treated with 3 mmole 4-PBA for 4 h and 24 h (n=3). The treated and untreated (control) cells were stained with anti-MC1R-phycoerythrin (PE) monoclonal antibody conjugate. Fluorescence intensity was corrected by auto-fluorescence of cells without staining and data were expressed as relative fluorescence intensity (IF) (vs. control)±SD.
Accumulation of misfolded-proteins causes upregulation and detachment of ER resident protein GRP78 from ER sensors proteins—activating the unfolded protein response (UPR) and downstream signaling pathways (including autophagy). […] Thus, the potential for a pharmacological treatment that would sensitize BRAFi-resistant cells to BRAFi by reducing ER-stress was considered. BRAFi-resistant A375VR melanoma cells were incubated with BRAFi vemurafenib alone and in combination with ER-stress relieving PBA.

metastatic melanoma = settings: cited from earlier work

SMILES: O=C(O)CCCc1ccccc1 [PBA, 4-phenylbutyric acid, sodium salt]
- time dependency of MCR1 expression (MCR1 expression): significant (time dependent) increase in MCR1 expression
- binding of MCR1-specific peptide [125I]-NDP-a-MSH (MCR1): increases binding of MCR1-specific peptides
- clonogenic cell death [1]: ~90%
- tolerated dose in patients (metastatic melanoma): up to 27 g/day
